Experimental data taken from ChEMBL document CHEMBL5532723, “Advances in Targeted Therapies for Inflammatory Diseases and Cancer: Exploring Cellular Mechanisms and Therapeutic Strategies” (ACS Med Chem Lett, 2024).

Columns and labels:
[1] = target: T1, Protein cereblon/Interleukin-1 receptor-associated kinase 4 (Homo sapiens, UniProt Q9NWZ3+Q96SW2); assay: PROTAC activity at CRBN/IRAK4 in human KARPAS-299 cells assessed as induction of IRAK4 degradation incubated for 24 hrs by TR-FRET assay; format: cell-based
Target sequence in this assay (Q9NWZ3 whole entry): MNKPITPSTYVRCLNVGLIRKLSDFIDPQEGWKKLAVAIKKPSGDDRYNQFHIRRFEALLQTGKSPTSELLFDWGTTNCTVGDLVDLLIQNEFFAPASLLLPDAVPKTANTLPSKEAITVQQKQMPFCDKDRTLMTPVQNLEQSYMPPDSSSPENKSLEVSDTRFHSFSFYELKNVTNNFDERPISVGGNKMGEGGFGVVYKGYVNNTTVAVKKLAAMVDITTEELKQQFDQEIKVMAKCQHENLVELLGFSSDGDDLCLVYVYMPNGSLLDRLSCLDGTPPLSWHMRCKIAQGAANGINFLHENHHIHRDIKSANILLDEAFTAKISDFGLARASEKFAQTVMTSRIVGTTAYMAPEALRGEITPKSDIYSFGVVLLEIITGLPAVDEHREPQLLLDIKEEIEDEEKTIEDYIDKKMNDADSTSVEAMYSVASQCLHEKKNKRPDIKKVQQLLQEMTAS
Target sequence in this assay (Q96SW2 whole entry): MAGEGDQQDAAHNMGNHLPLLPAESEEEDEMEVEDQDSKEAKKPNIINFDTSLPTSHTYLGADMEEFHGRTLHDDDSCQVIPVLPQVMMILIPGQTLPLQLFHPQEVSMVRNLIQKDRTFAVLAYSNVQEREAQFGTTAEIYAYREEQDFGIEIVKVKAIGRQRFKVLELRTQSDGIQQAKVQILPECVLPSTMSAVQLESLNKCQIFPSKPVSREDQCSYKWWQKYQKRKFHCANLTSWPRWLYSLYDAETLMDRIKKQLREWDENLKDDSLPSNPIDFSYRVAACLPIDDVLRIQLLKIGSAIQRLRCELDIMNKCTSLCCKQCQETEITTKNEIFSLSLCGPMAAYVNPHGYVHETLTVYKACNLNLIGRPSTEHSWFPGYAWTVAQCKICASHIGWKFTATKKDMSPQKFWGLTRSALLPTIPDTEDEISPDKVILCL

[2] = target: T1, Protein cereblon/Interleukin-1 receptor-associated kinase 4; assay: PROTAC activity at CRBN/IRAK4 in human KARPAS-299 cells assessed as induction of IRAK4 degradation incubated for 24 hrs by TR-FRET assay relative to control; format: cell-based
Target sequence in this assay (Q96SW2 whole entry, looked up): as the sequence (Q96SW2 whole entry) above
Target sequence in this assay (Q9NWZ3 whole entry, looked up): as the sequence (Q9NWZ3 whole entry) above

| Compound | DC50 [1] [nM] | Emax [2] [%] |
| --- | --- | --- |
| CC(C)(O)c1cc2nn([C@H]3C[C@H](N4CCN(C(=O)C5CN(c6cc(F)c([C@H]7CCC(=O)NC7=O)c(F)c6)C5)CC4)C3)cc2cc1NC(=O)c1ccc2cc(C#N)cnn12 | 11 | 99 |
| CC(C)(O)c1cc2nn(C34CC(N5CCN(CCc6cc(F)c([C@H]7CCC(=O)NC7=O)c(F)c6)CC5)(C3)C4)cc2cc1NC(=O)c1ccc2cc(C#N)cnn12 | 5.2 | 94 |
| CC(C)(O)c1cc2nn([C@H]3CC[C@H](N4CCN(C5CN(c6cc(F)c([C@H]7CCC(=O)NC7=O)c(F)c6)C5)CC4)CC3)cc2cc1NC(=O)c1ccc2cc(C#N)cnn12 | 8.3 | 100 |
| CC(C)(O)c1cc2nn([C@H]3CC[C@H](N4CCN(CCNc5cc(F)c(C6CCC(=O)NC6=O)c(F)c5)CC4)CC3)cc2cc1NC(=O)c1ccc2cc(C#N)cnn12 (some centres not stated) | 7.1 | 100 |
| CC(C)(O)c1cc2nn(C34CCC(N5CCN(CCc6cc(F)c([C@H]7CCC(=O)NC7=O)c(F)c6)CC5)(CC3)CC4)cc2cc1NC(=O)c1ccc2cc(C#N)cnn12 | 3.9 | 101 |
| CC(C)(O)c1cc2nn([C@H]3CC[C@H](N4CCN(CCc5cc(F)c([C@H]6CCC(=O)NC6=O)c(F)c5)CC4)CC3)cc2cc1NC(=O)c1ccc2cc(C#N)cnn12 | 3.7 | 99 |
